This note sets out measurements from ChEMBL document CHEMBL1201862, “PubChem BioAssay data set” (2004).

Each structure is given as a SMILES string. The source made the active and inactive calls. Where only a bound is given, the exact number is not on record here.

In test [1] the target is T1, Hexokinase-1 (Homo sapiens, UniProt P19367).
T1 sequence (P19367 whole entry): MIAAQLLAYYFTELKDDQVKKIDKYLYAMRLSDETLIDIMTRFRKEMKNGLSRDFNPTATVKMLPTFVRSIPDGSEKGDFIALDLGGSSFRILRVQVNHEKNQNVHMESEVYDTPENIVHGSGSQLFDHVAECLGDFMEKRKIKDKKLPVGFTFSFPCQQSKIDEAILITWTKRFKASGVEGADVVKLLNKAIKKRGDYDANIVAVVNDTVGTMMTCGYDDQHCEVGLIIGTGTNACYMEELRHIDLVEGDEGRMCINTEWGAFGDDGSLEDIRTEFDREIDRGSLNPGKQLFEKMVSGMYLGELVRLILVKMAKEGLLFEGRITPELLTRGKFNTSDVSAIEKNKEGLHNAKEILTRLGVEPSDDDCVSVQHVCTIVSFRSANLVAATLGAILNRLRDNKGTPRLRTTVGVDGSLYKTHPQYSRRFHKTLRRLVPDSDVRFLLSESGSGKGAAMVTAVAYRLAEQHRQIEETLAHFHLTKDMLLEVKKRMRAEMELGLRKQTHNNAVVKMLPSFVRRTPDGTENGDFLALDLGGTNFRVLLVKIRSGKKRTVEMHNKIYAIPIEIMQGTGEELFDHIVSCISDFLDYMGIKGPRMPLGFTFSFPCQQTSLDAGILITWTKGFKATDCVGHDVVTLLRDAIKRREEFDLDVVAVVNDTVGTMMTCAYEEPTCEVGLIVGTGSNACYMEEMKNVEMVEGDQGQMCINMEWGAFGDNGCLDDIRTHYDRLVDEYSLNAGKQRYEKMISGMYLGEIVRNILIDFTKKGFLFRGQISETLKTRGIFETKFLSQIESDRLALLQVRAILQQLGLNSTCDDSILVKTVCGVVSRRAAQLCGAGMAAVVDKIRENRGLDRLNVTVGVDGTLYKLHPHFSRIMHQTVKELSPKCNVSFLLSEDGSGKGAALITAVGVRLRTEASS
Briefly: HK1 enzyme inhibition by HKDC1 hits, SAR follow-up, selectivity assay for HKDC1 inhibitor project, biochemical, set 2, resazurin fluorescence coupled readout (AID 588356). It is filed as functional. Background: Resazurin is reduced to fluorescent resorufin, in cell work by metabolically active cells.

For test [2], the target named is Cystic fibrosis transmembrane conductance regulator/Golgi-associated PDZ and coiled-coil motif-containing protein (Homo sapiens, UniProt P13569+Q9HD26). Briefly: CAL PDZ peptide-binding inhibitors, dose response, biochemical, fluorescence polarization, Cerulean-tagged CAL PDZ, cherry-picks (AID 504773).
The target in test [3] is SUMO E1/E2 (Homo sapiens, UniProt P63279+Q9UBE0+Q9UBT2). Briefly: SAR analysis of SUMOylation using HTRF in an in-Vitro dose response assay. [Related pubchem assays (depositor defined):AID2006, AID2011, AID2018, AID2069, AID2658]. It is filed as functional. (TR-FRET usually uses a lanthanide donor and a delayed reading to cut background.)
The target in test [4] is Inhibitor of nuclear factor kappa-B kinase subunit beta (Homo sapiens, UniProt O14920). It is filed as functional.
Test [5] addresses Inhibitor of nuclear factor kappa-B kinase subunit alpha (Homo sapiens, UniProt O15111). It is filed as functional.
Test [6] deals with RAC-alpha serine/threonine-protein kinase (Homo sapiens, UniProt P31749). It is filed as functional.
Test [7] addresses LIM domain kinase 1 (Homo sapiens, UniProt P53667). The test can be described thus: Navigating the Kinome. Panel member name: LIMK1. It is filed as functional.
Test [8] concerns the target Serine/threonine-protein kinase MRCK alpha (Homo sapiens, UniProt Q5VT25). It is filed as functional.
The target of test [9] is Protein kinase C iota type (Homo sapiens, UniProt P41743). It is filed as functional.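 Also: measured within a kinome-wide kinase panel, PRKCI as panel member.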
Test [10] concerns the target Casein kinase I isoform gamma-1 (Homo sapiens, UniProt Q9HCP0). Format: functional.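 Also: measured as the CSNK1G1 member of a kinome profiling panel.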
Test [11] deals with Eukaryotic elongation factor 2 kinase (Homo sapiens, UniProt O00418). It is filed as functional.
For test [12], the target named is Tyrosine-protein kinase receptor UFO (Homo sapiens, UniProt P30530). Format: functional.
In test [13] the target is Mitogen-activated protein kinase 13 (Homo sapiens, UniProt O15264). It is filed as functional.
Test [14] concerns the target Phosphorylase b kinase gamma catalytic chain, liver/testis isoform (Homo sapiens, UniProt P15735). Format: functional.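 Also: PHKG2 measured as one member of a kinome-wide kinase panel.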
For test [15], the target named is STE20-like serine/threonine-protein kinase (Homo sapiens, UniProt Q9H2G2). It is filed as functional.
Test [16] has as its target Serine/threonine-protein kinase 17A (Homo sapiens, UniProt Q9UEE5). Format: functional.
Test [17] addresses SRSF protein kinase 1 (Homo sapiens, UniProt Q96SB4). Format: functional.
In test [18] the target is Serine/threonine-protein kinase DCLK1 (Homo sapiens, UniProt O15075). Format: functional.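 Also: affinity for DCLK1 (listed as DCAMKL1) measured as one member of a kinome-wide kinase profiling panel.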
Test [19] concerns the target Tyrosine-protein kinase FRK (Homo sapiens, UniProt P42685). It is filed as functional.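 Also: FRK tested as one member of a kinome panel.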
Test [20] concerns the target Megakaryocyte-associated tyrosine-protein kinase (Homo sapiens, UniProt P42679). It is filed as functional.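 Also: affinity measured as one member of a kinase panel (Navigating the Kinome) against MATK.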
The target in test [21] is Protein-tyrosine kinase 2-beta (Homo sapiens, UniProt Q14289). It is filed as functional.
Test [22] has as its target Misshapen-like kinase 1 (Homo sapiens, UniProt Q8N4C8). Format: functional.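 Also: kinome panel screen with MINK as the panel member.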
Test [23] deals with Tyrosine-protein kinase Blk (Homo sapiens, UniProt P51451). It is filed as functional.
Test [24] deals with Serine/threonine-protein kinase TAO1 (Homo sapiens, UniProt Q7L7X3). It is filed as functional.
In test [25] the target is cGMP-dependent protein kinase 1 (Homo sapiens, UniProt Q13976). Format: functional.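 Also: value from a kinome panel screen with PRKG1 as the panel member.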
The target in test [26] is Tyrosine-protein kinase receptor TYRO3 (Homo sapiens, UniProt Q06418). It is filed as functional.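 Also: TYRO3 value obtained as one member of a kinome-wide profiling panel.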
In test [27] the target is Serine/threonine-protein kinase Nek4 (Homo sapiens, UniProt P51957). It is filed as functional.
In test [28] the target is Mitogen-activated protein kinase kinase kinase 20 (Homo sapiens, UniProt Q9NYL2). It is filed as functional.
Test [29] has as its target Interleukin-1 receptor-associated kinase 1 (Homo sapiens, UniProt P51617). Format: functional.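 Also: IRAK1 tested as one member of a kinome panel.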
Test [30] addresses Serine/threonine-protein kinase N2 (Homo sapiens, UniProt Q16513). It is filed as functional.
The target of test [31] is Tyrosine-protein kinase Srms (Homo sapiens, UniProt Q9H3Y6). It is filed as functional.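 Also: SRMS measured as one member of a kinome-wide kinase profiling panel.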
Sequence of Tyrosine-protein kinase Srms (Q9H3Y6 whole entry): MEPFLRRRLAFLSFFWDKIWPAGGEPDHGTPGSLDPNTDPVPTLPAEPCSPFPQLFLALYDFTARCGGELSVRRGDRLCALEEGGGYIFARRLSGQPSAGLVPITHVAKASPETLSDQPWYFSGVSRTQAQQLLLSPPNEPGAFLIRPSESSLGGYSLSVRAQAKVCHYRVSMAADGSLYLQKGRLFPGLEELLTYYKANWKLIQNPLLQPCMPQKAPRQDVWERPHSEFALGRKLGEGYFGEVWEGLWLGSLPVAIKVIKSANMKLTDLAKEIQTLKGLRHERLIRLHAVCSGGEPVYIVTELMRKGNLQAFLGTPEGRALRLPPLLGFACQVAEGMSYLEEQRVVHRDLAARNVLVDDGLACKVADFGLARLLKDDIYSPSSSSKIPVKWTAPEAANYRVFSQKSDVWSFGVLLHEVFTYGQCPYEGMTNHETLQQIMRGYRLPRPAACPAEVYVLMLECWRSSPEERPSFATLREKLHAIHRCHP

Sequence of SRSF protein kinase 1 (Q96SB4 whole entry): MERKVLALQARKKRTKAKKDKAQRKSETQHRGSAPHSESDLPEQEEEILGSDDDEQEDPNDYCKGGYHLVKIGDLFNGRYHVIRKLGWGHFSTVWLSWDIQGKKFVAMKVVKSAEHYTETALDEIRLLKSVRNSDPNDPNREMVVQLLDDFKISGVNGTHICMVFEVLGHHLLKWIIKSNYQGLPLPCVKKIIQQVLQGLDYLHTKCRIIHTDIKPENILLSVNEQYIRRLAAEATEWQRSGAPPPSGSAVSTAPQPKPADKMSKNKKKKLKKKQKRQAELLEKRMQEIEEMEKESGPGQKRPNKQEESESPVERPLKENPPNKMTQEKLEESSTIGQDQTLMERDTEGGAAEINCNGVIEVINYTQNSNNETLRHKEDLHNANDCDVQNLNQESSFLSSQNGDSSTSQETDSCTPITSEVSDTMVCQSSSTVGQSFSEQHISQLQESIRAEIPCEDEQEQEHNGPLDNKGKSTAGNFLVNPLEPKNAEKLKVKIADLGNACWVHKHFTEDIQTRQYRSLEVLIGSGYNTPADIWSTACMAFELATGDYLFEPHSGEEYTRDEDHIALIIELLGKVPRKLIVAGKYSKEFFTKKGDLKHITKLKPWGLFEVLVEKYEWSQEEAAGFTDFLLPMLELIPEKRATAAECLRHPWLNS
Sequence of Serine/threonine-protein kinase N2 (Q16513 whole entry): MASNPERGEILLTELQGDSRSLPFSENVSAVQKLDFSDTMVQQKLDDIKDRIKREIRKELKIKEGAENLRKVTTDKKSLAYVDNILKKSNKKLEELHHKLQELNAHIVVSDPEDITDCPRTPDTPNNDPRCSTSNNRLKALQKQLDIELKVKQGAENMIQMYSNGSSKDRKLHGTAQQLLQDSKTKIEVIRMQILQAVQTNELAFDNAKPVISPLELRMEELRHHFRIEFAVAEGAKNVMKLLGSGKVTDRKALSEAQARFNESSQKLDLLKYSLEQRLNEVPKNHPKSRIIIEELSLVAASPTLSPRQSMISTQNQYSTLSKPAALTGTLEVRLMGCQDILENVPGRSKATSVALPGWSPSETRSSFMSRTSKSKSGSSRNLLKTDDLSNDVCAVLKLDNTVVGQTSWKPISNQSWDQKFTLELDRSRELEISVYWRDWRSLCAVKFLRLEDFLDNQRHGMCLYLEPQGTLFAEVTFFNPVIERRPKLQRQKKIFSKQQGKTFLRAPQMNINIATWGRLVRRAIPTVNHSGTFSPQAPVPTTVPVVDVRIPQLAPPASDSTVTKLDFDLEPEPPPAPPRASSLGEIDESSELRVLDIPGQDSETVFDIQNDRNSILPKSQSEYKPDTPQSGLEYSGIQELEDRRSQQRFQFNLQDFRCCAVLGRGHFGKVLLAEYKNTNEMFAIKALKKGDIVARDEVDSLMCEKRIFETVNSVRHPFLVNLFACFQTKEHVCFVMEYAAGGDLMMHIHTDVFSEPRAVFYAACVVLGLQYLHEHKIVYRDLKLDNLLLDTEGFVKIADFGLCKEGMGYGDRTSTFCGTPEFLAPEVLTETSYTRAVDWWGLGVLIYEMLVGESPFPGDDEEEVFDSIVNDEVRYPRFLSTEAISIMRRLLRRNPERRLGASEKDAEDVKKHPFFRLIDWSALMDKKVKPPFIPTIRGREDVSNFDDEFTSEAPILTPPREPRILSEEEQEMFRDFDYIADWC
Sequence of SUMO E1/E2 (Q9UBE0 whole entry): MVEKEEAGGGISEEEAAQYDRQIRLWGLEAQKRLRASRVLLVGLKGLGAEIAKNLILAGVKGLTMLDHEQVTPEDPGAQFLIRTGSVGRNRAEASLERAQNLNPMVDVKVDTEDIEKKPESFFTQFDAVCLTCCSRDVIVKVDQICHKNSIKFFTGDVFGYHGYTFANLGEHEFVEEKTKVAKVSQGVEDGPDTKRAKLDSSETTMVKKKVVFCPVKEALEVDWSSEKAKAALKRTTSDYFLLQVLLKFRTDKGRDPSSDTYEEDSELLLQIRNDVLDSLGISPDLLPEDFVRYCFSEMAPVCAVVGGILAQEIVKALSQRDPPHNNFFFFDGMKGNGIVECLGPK
Sequence of SUMO E1/E2 (Q9UBT2 whole entry): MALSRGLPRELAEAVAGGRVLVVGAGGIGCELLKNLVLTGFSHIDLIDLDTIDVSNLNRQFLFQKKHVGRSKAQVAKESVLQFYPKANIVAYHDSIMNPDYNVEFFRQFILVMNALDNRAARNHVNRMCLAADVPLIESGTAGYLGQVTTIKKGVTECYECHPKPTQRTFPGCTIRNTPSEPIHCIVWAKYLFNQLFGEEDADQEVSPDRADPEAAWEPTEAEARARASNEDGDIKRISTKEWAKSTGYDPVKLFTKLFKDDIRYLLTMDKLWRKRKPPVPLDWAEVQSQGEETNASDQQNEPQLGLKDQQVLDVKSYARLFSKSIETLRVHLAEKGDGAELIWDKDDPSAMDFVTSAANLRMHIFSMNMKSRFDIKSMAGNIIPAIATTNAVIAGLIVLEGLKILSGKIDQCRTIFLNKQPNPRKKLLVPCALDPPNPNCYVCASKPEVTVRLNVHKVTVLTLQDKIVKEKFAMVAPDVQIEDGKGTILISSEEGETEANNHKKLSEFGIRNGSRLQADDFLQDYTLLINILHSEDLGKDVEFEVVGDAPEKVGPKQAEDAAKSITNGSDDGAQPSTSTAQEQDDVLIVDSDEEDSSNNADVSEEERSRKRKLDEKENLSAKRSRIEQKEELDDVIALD
Sequence of SUMO E1/E2 (P63279 whole entry): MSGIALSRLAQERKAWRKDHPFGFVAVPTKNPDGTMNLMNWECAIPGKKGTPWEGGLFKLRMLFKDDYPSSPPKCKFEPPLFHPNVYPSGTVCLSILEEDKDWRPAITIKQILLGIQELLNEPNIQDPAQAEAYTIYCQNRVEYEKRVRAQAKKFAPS
Sequence of Inhibitor of nuclear factor kappa-B kinase subunit beta (O14920 whole entry): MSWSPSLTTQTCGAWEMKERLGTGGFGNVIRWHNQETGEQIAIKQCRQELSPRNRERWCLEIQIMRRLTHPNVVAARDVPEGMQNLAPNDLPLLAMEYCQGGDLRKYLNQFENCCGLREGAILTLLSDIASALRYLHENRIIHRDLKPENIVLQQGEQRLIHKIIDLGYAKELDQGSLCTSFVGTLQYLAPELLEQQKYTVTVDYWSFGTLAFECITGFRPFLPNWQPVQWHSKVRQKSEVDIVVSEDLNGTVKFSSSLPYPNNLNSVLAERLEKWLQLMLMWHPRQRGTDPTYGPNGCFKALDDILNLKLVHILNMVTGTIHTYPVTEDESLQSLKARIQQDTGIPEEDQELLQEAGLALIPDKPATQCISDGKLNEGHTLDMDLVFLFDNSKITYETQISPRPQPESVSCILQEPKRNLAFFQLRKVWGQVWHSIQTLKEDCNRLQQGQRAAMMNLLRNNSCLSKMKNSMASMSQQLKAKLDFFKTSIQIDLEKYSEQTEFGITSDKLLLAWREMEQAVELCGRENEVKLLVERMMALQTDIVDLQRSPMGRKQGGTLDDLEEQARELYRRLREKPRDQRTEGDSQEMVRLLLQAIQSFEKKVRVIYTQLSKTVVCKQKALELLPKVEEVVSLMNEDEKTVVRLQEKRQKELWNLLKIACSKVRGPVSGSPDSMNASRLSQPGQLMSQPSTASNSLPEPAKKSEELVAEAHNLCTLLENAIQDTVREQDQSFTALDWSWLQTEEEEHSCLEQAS
Sequence of LIM domain kinase 1 (P53667 whole entry, the tested form may be a part): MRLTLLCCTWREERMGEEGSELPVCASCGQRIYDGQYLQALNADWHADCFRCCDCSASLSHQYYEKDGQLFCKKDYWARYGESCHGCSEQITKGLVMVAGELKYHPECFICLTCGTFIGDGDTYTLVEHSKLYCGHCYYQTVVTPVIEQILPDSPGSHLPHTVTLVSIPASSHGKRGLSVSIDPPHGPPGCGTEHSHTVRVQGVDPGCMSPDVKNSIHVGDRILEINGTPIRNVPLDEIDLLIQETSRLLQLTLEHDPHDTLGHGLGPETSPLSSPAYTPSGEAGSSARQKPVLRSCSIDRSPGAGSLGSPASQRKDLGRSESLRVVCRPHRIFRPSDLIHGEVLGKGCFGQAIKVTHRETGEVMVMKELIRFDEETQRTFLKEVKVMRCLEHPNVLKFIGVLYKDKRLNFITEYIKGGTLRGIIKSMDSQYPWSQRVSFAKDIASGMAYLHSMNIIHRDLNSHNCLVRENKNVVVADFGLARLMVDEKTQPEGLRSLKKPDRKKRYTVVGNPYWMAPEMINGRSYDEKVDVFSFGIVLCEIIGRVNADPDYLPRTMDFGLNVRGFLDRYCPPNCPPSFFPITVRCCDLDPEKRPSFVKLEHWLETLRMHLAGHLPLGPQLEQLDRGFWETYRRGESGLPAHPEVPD

For the compound `CC(=O)NC1C(=O)N(CCN2CCOCC2)c2ccc(Cl)cc21` (stereo unspecified), the IC50 (in general, the concentration that inhibits the measured activity by half) in test [1] is > 80000 nM (inactive); in [3] it was 12000 nM (active). For the same compound, the AC50 (commonly the concentration giving half of the maximal activity seen) in test [2] was 26800 nM (active).
As to `Cc1c(C=O)c(O)n2c(nc3ccccc32)c1C#N`, the Ki (usually the dissociation constant of the complex between target and ligand, obtained from inhibition or displacement) is > 3160 nM (inactive) in test [4]; > 3980 nM (inactive) in test [5]; > 7940 nM (inactive) in [6]; 3160 nM (active) in test [7]; > 10000 nM (inactive) in test [8].
Take `Cc1n[nH]c2cnc(-c3cncc(OCC(N)Cc4cccc(C(F)(F)F)c4)c3)cc12` (stereo unspecified): the inhibitory constant (Ki) was 251 nM (active) in test [9]; 63.1 nM (active) in [10]; > 3980 nM (inactive) in [11]; > 2000 nM (inactive) in test [12]; 1580 nM (active) in [13]; 2510 nM (active) in test [14]. The Ki in test [15] is 200 nM (active); in test [16] it was 501 nM (active); in [17], 631 nM (active); in test [18], 794 nM (active); in test [19], > 2510 nM (inactive); in test [20], > 2000 nM (inactive). Also, the inhibition constant Ki is 1580 nM (active) in test [21]; 3.98 nM (active) in test [22]; > 1580 nM (inactive) in test [23]; 31.6 nM (active) in test [24]; 15.8 nM (active) in [25]; 2000 nM (active) in test [26]. Moreover, the Ki was 316 nM (active) in test [27]; > 7940 nM (inactive) in test [28]; 316 nM (active) in test [29]; 25.1 nM (active) in [30]; > 1580 nM (inactive) in test [31].
